Three compounds from publication PMC9828517 (Angewandte Chemie (International Ed. in English), 2022) can be followed below.

The target in this assay is T1, recombinant SIRT5 (His-tagged, Millipore) (Homo sapiens, UniProt Q9NXA8).
T1 sequence (Q9NXA8 37-310): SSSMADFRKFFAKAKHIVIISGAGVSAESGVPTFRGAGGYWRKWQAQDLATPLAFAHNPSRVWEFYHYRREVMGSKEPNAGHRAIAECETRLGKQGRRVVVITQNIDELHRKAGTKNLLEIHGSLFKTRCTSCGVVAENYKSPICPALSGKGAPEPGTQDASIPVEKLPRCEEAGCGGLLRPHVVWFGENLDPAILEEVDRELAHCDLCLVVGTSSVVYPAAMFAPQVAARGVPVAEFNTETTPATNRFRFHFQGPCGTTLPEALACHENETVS
Briefly: Mass spectrometry determination of covalent labeling. The following applies: Tris buffer pH 8, 24 h room temperature (7, 8: 37 °C, 48 h). It counts as binding.

For the compound `O=C(NCCCC[C@H](NS(=O)(=O)c1cccc(F)c1)C(=O)N[C@@H](Cc1c[nH]c2ccccc12)C(=O)NC1CCC1)c1cccc(S(=O)(=O)F)c1` [compound 2], the “covalent conjugate formation with SIRT5 (MALDI-TOF MS)” value is recorded as “reacted more readily with SIRT5”.
In the case of `O=C(NC1CCC1)[C@H](Cc1c[nH]c2ccccc12)NC(=O)[C@H](CCCCNC(=S)Nc1cccc(OS(=O)(=O)F)c1)NS(=O)(=O)c1cccc(F)c1` [compound 7] it was “not significantly enhanced compared to the amide analogs”; in that of `O=C(NC1CCC1)[C@H](Cc1c[nH]c2ccccc12)NC(=O)[C@H](CCCCNC(=S)Nc1ccc(OS(=O)(=O)F)cc1)NS(=O)(=O)c1cccc(F)c1` [compound 8], “not significantly enhanced compared to the amide analogs”.
